Assay [1] has as its system bacteria. The experiment in a line: Bactericidal preservatives added to bacteria, cell counts by flow cytometry or cell plating. Type of assay: cell-based. The note with it: cell counts over 3 days, FIG. 60. (Flow cytometry measures light scatter and fluorescence of single cells or particles in a stream.)
Assay [2] concerns bacterial cells. As to conditions: preservative with TENT, PCR or plating, FIG. 59A/59B.
The mark [3] stands for this setting: high concentration culture, 4.5×10^6 cells.
Setting [4] is: low concentration culture, 8.6×10^4 cells.

Read-outs that look alike come from different tables or passages of the source.

In the case of `C[CH2][Hg][S]c1ccccc1C(=O)[O-].[Na+]` [thimerosal], in assay [1], the “viability of bacteria over time” value is on record as “reduced the viability of bacteria”. For the same molecule, the viability of bacteria entry in assay [2] (setting [3]) and in assay [2] (setting [4]) was “reduce the viability of bacteria” throughout.

With `O=C(NCO)N(CO)C1(CO)C(=O)NC(=O)N1CO` (centres unmarked) [diazolidinyl urea], in assay [1], the “viability of bacteria over time” value is “reduced the viability of bacteria”.

Turning to `C/C=C/C=C/C(=O)O` [sorbic acid], the viability of bacteria result in assay [2] (setting [3]) and in assay [2] (setting [4]) was “reduce the viability of bacteria” each time.

For the molecule `OCCOc1ccccc1` [2-phenoxyethanol], the viability of bacteria entry in assay [2] (setting [3]) and in assay [2] (setting [4]) was “reduce the viability of bacteria” each time.

(Values after patent US10588608B2, “Sampling systems and related materials and methods” (Progenity Inc., priority 2016, dated 2020).)
